Here are results for twelve compounds from ChEMBL document CHEMBL1130361, “Homology modeling of the ampa receptor: A quantitative predictive tool for the design of novel antagonists” (Bioorg Med Chem Lett, 1997).

Structures are written as SMILES.

The assay addresses Glutamate receptor ionotropic AMPA (Homo sapiens, UniProt P42261+P42262+P42263+P48058).
Description: Binding affinity against AMPA receptor using [3H]- AMPA radioligand
What is called IC50 is the concentration needed to halve the response being measured. A high value points to weaker potency in that assay. `C[C@@]12CC[C@H](CSc3nn[nH]n3)C[C@]1(C)CC(C(=O)O)NC2` (some centres not stated) displayed a half-maximal inhibitory concentration (IC50) of 580 nM.
`Oc1nc2ccc3c(c2nc1O)CCCN3` had a half-maximal inhibitory concentration (IC50) of 24000 nM.
With `CN1Cc2c(S(=O)(=O)N(C)C)cc3c(N=O)c(O)[nH]c3c2C1` the figure was 700 nM; with `CN1CCc2c([N+](=O)[O-])cc3[nH]c(=O)c(=O)[nH]c3c2C1`, 80 nM.
`CCN1CCc2c([N+](=O)[O-])cc3[nH]c(=O)c(=O)[nH]c3c2C1` returned a half-inhibitory concentration (IC50) of 166 nM.
Next, `CN1CCc2c(-c3ccc([N+](=O)[O-])cc3)cc3c(c2C1)NC(=O)/C3=N\O`: 150 nM.
The compound `CC(C)N1CCc2c([N+](=O)[O-])cc3[nH]c(=O)c(=O)[nH]c3c2C1` registered a concentration for half-maximal inhibition (IC50) of 153 nM.
Next, `C[C@@]12CC[C@H](CS(=O)(=O)c3nc[nH]n3)C[C@]1(C)CC(C(=O)O)NC2` (some centres not stated): 630 nM; `C[C@@]12CC[C@H](CCc3nnn[nH]3)C[C@]1(C)CC(C(=O)O)NC2` (some centres not stated): 1350 nM; `O=[N+]([O-])c1ccc2nc(O)c(O)nc2c1`: 2000 nM.
As to `COC(=O)c1cc2nc(O)c(O)nc2c2c1CN(C)CC2`, the half-maximal inhibitory concentration (IC50) was 44000 nM. This IC50 lies about 22-fold higher than the previous one.
`O=C1Nc2c(ccc3c2CCCC3)/C1=N/O` gave an IC50 of 7200 nM.
